pKd: −log10 of the molar value. Where two headings read alike, the source gives them in different places. *1 amine or outer side, *2 acyl side, *3 side chain or, on linkers, in order; H or OH if unused. Where a SMILES comes first, the peptide text is derived from it. Bridges are numbered along the chain shown (N, C = ends). TATA = O=C(CC[*:1])N1CN(C(=O)CC[*:2])CN(C(=O)CC[*:3])C1
What was measured:
[1] = the molecule shown is the open-chain precursor
TSLP [2] = biological target: T1, TSLP (Homo sapiens, UniProt Q969D9); experiment: Human TSLP Surface Plasmon Resonance (SPR) binding assay; design: The resulting construct spCD33-6×HN-TEV-hTSLP(29-159)-Avi; 6xHN tag with TEV site (N, cleaved yes); made in house; host or cells: Expi293F cells; settings: biotinylated human TSLP immobilized on streptavidin chip; 20° C.; steady-state or kinetic 1:1 fit; read-out: hTSLP SPR Kd
T1 sequence (Q969D9 29-159): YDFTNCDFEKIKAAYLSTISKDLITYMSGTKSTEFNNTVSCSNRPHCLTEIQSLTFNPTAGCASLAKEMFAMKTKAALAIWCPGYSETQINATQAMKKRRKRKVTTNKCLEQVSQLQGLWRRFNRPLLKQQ

TSLP [3] = biological target: T1, TSLP; experiment: Human peripheral blood mononuclear cell assay (TSLP-induced CCL17/TARC); format: cell-based; design: host or cells: added to human PBMCs from healthy donors; settings: read-out: CCL17 % Inhibition @ 10 μM, […] TSLP
Experimental: Human peripheral blood mononuclear cells (PMBCs) were obtained from heparinized whole blood (healthy donors) by density gradient centrifugation using Lymphoprep (StemCell Technologies, Vancouver, BC) according to the manufacturers instructions. The PBMCs were washed twice with PBS containing 2 mM EDTA and 2% fetal calf serum (FCS) and reconstituted in RPMI containing 10% FCS and 2% PenStrep at a final concentration of 3 million cells/mL. This cell suspension (100 μL) was aliquoted into the wells of a 96-well flat bottom tissue culture plate. 5 μL of bicycle peptide or vehicle (0.1% DMSO in complete medium) was then added and mixed with 5 μL of TSLPvehicle (complete medium). […] The plate was incubated for 30 minutes are rt. 10 μL of this mixture was added to cells and the plate was incubated for 24 hours in a 10% CO2, humidified incubator at 37° C. The plate was centrifuged at 300×g for 5 min and the collected supernatants frozen at −20° C. for subsequent CCL17/TARC analysis.
CCL17/TARC was determined by MSD (MesoScale Discovery, Maryland, USA) according to the manufacturer's instructions.

[4] = crosslinker bond, 29-membered ring, TATA/NH4HCO3, MeCN/H2O

Compound	ring closure, yield after HPLC [1, 4] [%]	pKd (TSLP [2])	inhibition at 10 µM (TSLP [3]) [%]	other results
Ac-Cys-MeAla-Trp(1-Me)-Ala(tBu)-Gln-Asp-Cys-Trp(1-Me)-ADMA-Gly-Phe(4-F)-Cys-NH2?	19	–	–	–
N3CH2C(O)NH(CH2CH2O)3CH2CH2(CO)-Cys-MeAla-Trp(1-Me)-Ala(tBu)-Gln-Asp-Cys-Trp(1-Me)-ADMA-Gly-Phe(4-F)-Cys-NH2	12	–	–	–
n-octanoyl-Cys-MeAla-Trp(1-Me)-Ala(tBu)-Gln-Asp-Cys-Trp(1-Me)-ADMA-Gly-Phe(4-F)-Cys-NH2	14	–	–	–
Ac-Cys-Gln-X2-Leu-Glu-Asp-Cys-Trp-X1-Gly-Phe(4-F)-Cys-NH2 (X1=L-2-amino-azidobutanoic acid, X2=L-2-aminohept-6-ynoic acid; three Cys bridged by TATA)	–	–	–	ring closure, yield after HPLC ([1]; triazole bond, 27-membered ring, CuSO4/Na ascorbate, H2O/tBuOH): 1%
CC(C)C[C@@H]1NC(=O)[C@H](Cc2c[nH]c3ccccc23)NC(=O)[C@H](CCC(N)=O)NC(=O)[C@@H](NC(=O)[C@H](C)N)CSCCC(=O)N2CN3CN(C2)C(=O)CCSC[C@H](NC(=O)[C@H](CC(=O)O)NC(=O)[C@H](CCC(=O)O)NC1=O)C(=O)N[C@@H](Cc1c[nH]c2ccccc12)C(=O)N[C@@H](CCCNC(=N)N)C(=O)NCC(=O)N[C@@H](Cc1ccccc1)C(=O)N[C@H](C(=O)N[C@@H](CO)C(=O)N[C@@H](CO)C(=O)N[C@@H](CO)C(=O)N[C@@H](CC(=O)O)C(=O)N[C@@H](CCC(N)=O)C(=O)N[C@@H](CO)C(N)=O)CSCCC3=O [Example 59, A-(SEQ ID NO: 38)-SSSDQS]	–	7.28	2	–
H-Cys-MeAla-Nal1-Ala(tBu)-Gln-Asp-Cys-Trp(1-Me)-ADMA-Gly-Phe(4-F)-Cys-dAla-NH2?	–	–	–	ring closure, yield after HPLC ([1]; crosslinker bond, 29-membered ring, TATA/NH4HCO3, MeCN/H2O, 0.93 mM): 17%
CC(C)C[C@@H]1NC(=O)[C@H](Cc2c[nH]c3ccccc23)NC(=O)[C@H](Cc2c[nH]c3ccccc23)NC(=O)[C@H](CO)NC(=O)[C@H](CC(=O)O)NC(=O)[C@@H]2CSCCC(=O)N3CN(CN(C3)C(=O)CCSC[C@H](NC(=O)[C@@H](NC(=O)[C@H](Cc3c[nH]cn3)NC(=O)[C@@H](N)CO)C(C)C)C(=O)N[C@@H](CCCNC(=N)N)C(=O)N[C@@H](CC(=O)O)C(=O)N[C@@H](CC(C)C)C(=O)N[C@@H](CC(=O)O)C(=O)N3CCC[C@H]3C(=O)N[C@@H](Cc3c[nH]c4ccccc34)C(=O)N[C@@H]([C@@H](C)O)C(=O)N2)C(=O)CCSC[C@@H](C(=O)N[C@@H](C)C(N)=O)NC1=O [Example 188, SHV-(SEQ ID NO: 137)-A] (H-SHVCRDLDPWTCDSWWLCA-NH2; linker 4-12-18 via TATA; N-terminus and C-terminus assumed)	–	7.14	-4	–
CC(C)C[C@@H]1NC(=O)[C@H](Cc2c[nH]c3ccccc23)NC(=O)[C@@H]2CSCCC(=O)N3CN(CN(C3)C(=O)CCSC[C@H](NC(=O)[C@H](CC(=O)O)NC(=O)[C@H](Cc3c[nH]cn3)NC(=O)[C@@H](N)CC(=O)O)C(=O)N[C@@H]([C@@H](C)O)C(=O)N[C@@H](Cc3c[nH]c4ccccc34)C(=O)N[C@@H](CC(N)=O)C(=O)N[C@@H](Cc3c[nH]c4ccccc34)C(=O)N[C@@H](CCC(=O)O)C(=O)N[C@@H](Cc3ccc(O)cc3)C(=O)N[C@@H](CC(=O)O)C(=O)N2)C(=O)CCSC[C@@H](C(=O)N[C@@H](C)C(N)=O)NC(=O)[C@H](CC(=O)O)NC1=O [Example 200, DHD-(SEQ ID NO: 145)-A] (H-DHDCTWNWEYDCWLDCA-NH2; linker 4-12-16 via TATA; N-terminus and C-terminus assumed)	–	7.17	-42	–
